Experimental data as given in US20040005537A1, “Method of identifying toxic agents using differential gene expression” (priority 2000, published 2004).

Legend:
rat heart tissue = assay: GENECALLING differential gene expression analysis after dosing of serotonin modulating agents; format: in vivo, Sprague Dawley rats
Method in brief: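 GENECALLING profiling of cDNA from total RNA, keeping gene fragments modulated beyond ±1.5-fold. Tissue collected 24 h after final dosing of serotonin modulating agents; control rats received sterile water or canola oil.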

[1] = grouping used to generate the distinguishing gene profiles; cited from earlier work

In the case of `CNCCC(Oc1ccc(C(F)(F)F)cc1)c1ccccc1` (stereo not shown) [fluoxetine], the “Effects on Transcription Level: Novel gene fragment, 535 bp, 90% SI to mouse slow/cardiac troponin C [M29793]” value (rat heart tissue; CARDIOTOX 71) is reported as −2.0 fold, the “Effects on Transcription Level: Novel gene fragment, 445 bp, 85% SI to human skeletal muscle alpha 2 actinin [M86406]” value (rat heart tissue; CARDIOTOX 72) is reported as −1.6 fold and the “Effects on Transcription Level: Novel gene fragment, 246 bp, 89% SI to mouse ponsin-1 [AF078667]” value (rat heart tissue; CARDIOTOX 73) is reported as −2.5 fold. For the same molecule, the “Effects on Transcription Level: Novel gene fragment, 126 bp, 77% SI to human DNA sequence from cosmid V311G7, between markers DXS366 and DXS87 on chromosome X [Z69304]” value (rat heart tissue; CARDIOTOX 74) was “+2.0 fold”, the “Effects on Transcription Level: Novel gene fragment, 370 bp” value (rat heart tissue; CARDIOTOX 75) was −1.9 fold and the “Effects on Transcription Level: Novel gene fragment, 337 bp, 78% SI to novel human protein AHNAK [M80899]” value (rat heart tissue; CARDIOTOX 76) was −2.5 fold. For the same molecule, the “Effects on Transcription Level: Novel gene fragment, 100 bp, 93% SI to human KIAA0750 protein [ABO18293]” value (rat heart tissue; CARDIOTOX 77) was −7.6 fold, the “Effects on Transcription Level: Novel gene fragment, 44 bp” value (rat heart tissue; CARDIOTOX 78) was −5.6 fold and the “Effects on Transcription Level: Novel gene fragment, 698 bp, 93% SI to mouse plenty-of-prolines-101 [AF062655]” value (rat heart tissue; CARDIOTOX 79) was −2.3 fold. The “Effects on Transcription Level: Novel gene fragment, 660 bp, 84% SI to mouse membrane protein TMS-2 [AF181685]” value (rat heart tissue; CARDIOTOX 80) was −4.1 fold, the “Effects on Transcription Level: Novel gene fragment, 115 bp” value (rat heart tissue; CARDIOTOX 81) was −8.1 fold and the “Effects on Transcription Level: Novel gene fragment, 294 bp, 95% SI to mouse Ndr1 related protein Ndr2 [AB033921]” value (rat heart tissue; CARDIOTOX 82) was −2.5 fold. For the same molecule, the “Effects on Transcription Level: Novel gene fragment, 198 bp” value (rat heart tissue; CARDIOTOX 83) was “+2.5 fold”, the “Effects on Transcription Level: Novel gene fragment, 730 bp, 86% SI to mouse E800 [Y10968]” value (rat heart tissue; CARDIOTOX 84) was −1.8 fold and the “Effects on Transcription Level: Novel gene fragment, 294 bp, 98% SI to cysteine conjugate beta-lyase [S61960]” value (rat heart tissue; CARDIOTOX 85) was −1.8 fold. For the same molecule, the “Effects on Transcription Level: Aconitase” value (rat heart tissue; CARDIOTOX 86, GenBank A1243266) was −3.9 fold, the “Effects on Transcription Level: Ribosomal protein L7” value (rat heart tissue; CARDIOTOX 87, GenBank M17422) was “+2.7 fold” and the “Effects on Transcription Level: Ribosomal protein L9” value (rat heart tissue; CARDIOTOX 88, GenBank X51706) was “+6.0 fold”. The “Effects on Transcription Level: Ribosomal protein L12” value (rat heart tissue; CARDIOTOX 89, GenBank X53504) was −2.2 fold, the “Effects on Transcription Level: 18S, 5.8S, and 28S ribosomal RNA's” value (rat heart tissue; CARDIOTOX 90, GenBank V01270) was “+7 fold” and the “Effects on Transcription Level: Pyruvate dehydrogenase kinase 2 (PDK2)” value (rat heart tissue; CARDIOTOX 91, GenBank U10357) was −11.3 fold. The “Effects on Transcription Level: D-Binding Protein (DBP)” value (rat heart tissue; CARDIOTOX 92, GenBank J03179) was −1.5 fold, the “Effects on Transcription Level: Lipoprotein lipase” value (rat heart tissue; CARDIOTOX 93, GenBank L03294) was −3.7 fold and the “Effects on Transcription Level: Non-neuronal enolase” value (rat heart tissue; CARDIOTOX 94, GenBank X02610) was “+3.1 fold”. The “Effects on Transcription Level: Glycogen phosphorylase (muscle isozyme)” value (rat heart tissue; CARDIOTOX 95, GenBank L10669) was −3.0 fold, the “Effects on Transcription Level: Cytochrome c oxidase subunit IV” value (rat heart tissue; CARDIOTOX 96, GenBank X14209) was “+8.0 fold” and the “Effects on Transcription Level: Alpha-globin” value (rat heart tissue; CARDIOTOX 97, GenBank M17083) was “+2.9 fold”. The “Effects on Transcription Level: Beta-globin” value (rat heart tissue; CARDIOTOX 98, GenBank X06701) was “+4.0 fold”, the “Effects on Transcription Level: Myoglobin” value (rat heart tissue; CARDIOTOX 99, GenBank AF197916) was “+2.2 fold” and the “Effects on Transcription Level: Titin” value (rat heart tissue; CARDIOTOX 100, GenBank L38717) was “+1.6 fold”. The “Effects on Transcription Level: Skeletal muscle actin” value (rat heart tissue; CARDIOTOX 101, GenBank V01218) was −13.1 fold, the “Effects on Transcription Level: Myosin light chain 2 (MLC2)” value (rat heart tissue; CARDIOTOX 102, GenBank M11851) was “+3.6 fold” and the “Effects on Transcription Level: Alpha cardiac myosin heavy chain” value (rat heart tissue; CARDIOTOX 103, GenBank X15938) was −4.8 fold. For the same molecule, the “Effects on Transcription Level: Troponin I” value (rat heart tissue; CARDIOTOX 104, GenBank U77354) was “+1.6 fold”, the “Effects on Transcription Level: Cardiac calsequestrin” value (rat heart tissue; CARDIOTOX 105, GenBank AF001334) was −2.4 fold and the “Effects on Transcription Level: Sulfated glycoprotein 2” value (rat heart tissue; CARDIOTOX 106, GenBank M16975) was −2.2 fold. The “Effects on Transcription Level: Aquaporin 7” value (rat heart tissue; CARDIOTOX 107, GenBank AB000507) was “+1.8 fold”, the “Effects on Transcription Level: Carnitine/acylcarnitine carrier protein” value (rat heart tissue; CARDIOTOX 108, GenBank X97831) was −2.6 fold and the “Effects on Transcription Level: Glu-Pro Dipeptide Repeat” value (rat heart tissue; CARDIOTOX 109, GenBank U40628) was −3.1 fold. The “Effects on Transcription Level: Cystatin beta” value (rat heart tissue; CARDIOTOX 110, GenBank X54737) was “+2.5 fold”, the “Effects on Transcription Level: Novel gene fragment, 593 bp, 90% SI to human calcineurin B-like protein [Z08983]” value (rat heart tissue; CARDIOTOX 111) was “+2.1 fold” and the “Effects on Transcription Level: Novel gene fragment, 179 bp, 88% SI to human titin [X90568]” value (rat heart tissue; CARDIOTOX 112) was −1.8 fold. The “Effects on Transcription Level: Novel gene fragment, 700 bp, 91% SI to mouse periplakin (PPL) [AF116523]” value (rat heart tissue; CARDIOTOX 113) was “+2.1 fold”, the “Effects on Transcription Level: Long chain acyl-CoA dehydrogenase (LCAD)” value (rat heart tissue; CARDIOTOX 114, GenBank J05029) was “+1.6 fold” and the “Effects on Transcription Level: Sulfated glycoprotein 1 (SGP-1)” value (rat heart tissue; CARDIOTOX 115, GenBank M19936) was −2.1 fold. The “Effects on Transcription Level: Catalase” value (rat heart tissue; CARDIOTOX 116, GenBank M11670) was “+1.9 fold”, the “Effects on Transcription Level: Alpha-fodrin (A2A) (Nonerythroid spectrin alpha subunit)” value (rat heart tissue; CARDIOTOX 117, GenBank AF084186) was −1.6 fold and the “Effects on Transcription Level: Cardiac specific sodium channel alpha-subunit” value (rat heart tissue; CARDIOTOX 118, GenBank M27902) was −2.1 fold. For the same molecule, the “Effects on Transcription Level: Glu-Pro Dipeptide Repeat” value (rat heart tissue; CARDIOTOX 119, GenBank U40628) was “+2.7 fold”, the “Effects on Transcription Level: Novel gene fragment, 200 bp, 64% SI to human KIAA0733 protein [AB018316]” value (rat heart tissue; CARDIOTOX 120) was −1.6 fold and the “Effects on Transcription Level: RNA polymerase II transcription factor SIII (p18 subunit)” value (rat heart tissue; CARDIOTOX 121, GenBank L42855) was “+1.8 fold”. The “Effects on Transcription Level: Protein-tyrosine phosphalase (LRP)” value (rat heart tissue; CARDIOTOX 122, GenBank L01702) was “+1.5 fold”, the “Effects on Transcription Level: Skeletal muscle selenoprotein W (SelW)” value (rat heart tissue; CARDIOTOX 123, GenBank U25264) was −1.6 fold and the “Effects on Transcription Level: Sarcoplasmic reticulum 2+-Ca-ATPase” value (rat heart tissue; CARDIOTOX 124, GenBank X15635) was −1.8 fold. For the same molecule, the “Effects on Transcription Level: Ribosomal protein S7” value (rat heart tissue; CARDIOTOX 125, GenBank X53377) was “+1.3 fold”, the “Effects on Transcription Level: Ribophorin I” value (rat heart tissue; CARDIOTOX 126, GenBank X05300) was “+1.4 fold” and the “Effects on Transcription Level: Beta cardiac myosin heavy chain” value (rat heart tissue; CARDIOTOX 127, GenBank X15939) was “+1.4 fold”. For the same molecule, the “Effects on Transcription Level: ADP-ribosylation factor 1” value (rat heart tissue; CARDIOTOX 128, GenBank L12380) was −1.0 fold, the “Effects on Transcription Level: Laminin receptor” value (rat heart tissue; CARDIOTOX 129, GenBank U04942) was −1.5 fold and the “Effects on Transcription Level: Novel gene fragment, 206 bp, 89% SI to human seryl-tRNA synthetase [X91257]” value (rat heart tissue; CARDIOTOX 130) was “+1.7 fold”. For the same molecule, the “Effects on Transcription Level: Annexin VI” value (rat heart tissue; CARDIOTOX 131, GenBank X86086) was “+1.3 fold”, the “Effects on Transcription Level: Novel gene fragment, 325 bp, 90% SI to mouse N-RAP [U76618]” value (rat heart tissue; CARDIOTOX 132) was “+1.4 fold” and the “Effects on Transcription Level: Novel gene fragment, 61 bp (CARDIOTOX 134)” value (rat heart tissue; LD10 dose for three days) was −1.2 fold. The “Effects on Transcription Level: Novel gene fragment, 337 bp (CARDIOTOX 133)” value (rat heart tissue; LD10 dose for three days) was “+1.0 fold”, the “Effects on Transcription Level: Novel gene fragment, 378 bp, 88% SI to human coatomer protein (COPA) [U24105] (CARDIOTOX 138)” value (rat heart tissue; LD10 dose for three days) was −1.1 fold and the “Effects on Transcription Level: Long chain 3-ketoacyl-CoA thiolase (CARDIOTOX 136)” value (rat heart tissue; LD10 dose for three days, GenBank D16479) was −1.1 fold. The “Effects on Transcription Level: TATA-binding protein interacting protein 120 (TIP120) (CARDIOTOX 135)” value (rat heart tissue; LD10 dose for three days, GenBank D87671) was “+1.4 fold”, the “Effects on Transcription Level: Serine protease (CARDIOTOX 139)” value (rat heart tissue; LD10 dose for three days, GenBank D88250) was “+1.5 fold” and the “Effects on Transcription Level: Thymosin beta-4 (CARDIOTOX 137)” value (rat heart tissue; LD10 dose for three days, GenBank M34043) was “+1.4 fold”. The “classification as cardiotoxic or noncardiotoxic serotonin modulating agent” value [1] was “noncardiotoxic”.
